In article PMC3003779 (Chemistry & biology, 2010):
Like-named read-outs stand apart in the source and are kept apart here.

Experiments:
[1] = test system: mice with diet-induced obesity; experiment: intraperitoneal glucose tolerance test in mice on high-fat diet; assay type: in vivo, mouse; conditions: male DIO mice
SHR and WKY rats = experiment: mean arterial pressure and heart rate in anesthetized rats; assay type: in vivo, rat; conditions: 1 mg/kg i.v.
FAAH [2] = target: T1, FAAH (Mus musculus, UniProt O08914); experiment: FAAH activity in brain and liver homogenates, drug added in vitro; assay type: biochemical; conditions: 100 nM added in vitro, brain and liver homogenates
T1 sequence (O08914 1-579): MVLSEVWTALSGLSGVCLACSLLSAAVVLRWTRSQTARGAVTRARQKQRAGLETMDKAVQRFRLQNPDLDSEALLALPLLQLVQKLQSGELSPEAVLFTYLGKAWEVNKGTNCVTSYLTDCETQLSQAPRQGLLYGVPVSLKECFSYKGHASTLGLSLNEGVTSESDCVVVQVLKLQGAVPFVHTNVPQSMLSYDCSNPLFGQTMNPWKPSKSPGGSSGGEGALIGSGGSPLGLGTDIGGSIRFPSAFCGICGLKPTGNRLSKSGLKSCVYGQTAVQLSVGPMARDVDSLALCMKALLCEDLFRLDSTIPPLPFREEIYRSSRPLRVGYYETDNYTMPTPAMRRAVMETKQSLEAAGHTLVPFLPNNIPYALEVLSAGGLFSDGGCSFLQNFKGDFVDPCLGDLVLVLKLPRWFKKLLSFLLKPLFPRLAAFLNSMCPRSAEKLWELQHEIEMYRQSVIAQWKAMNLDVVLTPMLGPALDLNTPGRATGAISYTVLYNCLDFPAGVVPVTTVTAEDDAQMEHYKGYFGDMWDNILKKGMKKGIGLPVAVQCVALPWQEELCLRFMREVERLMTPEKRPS

SHR = experiment: mean arterial pressure and heart rate in chronically cannulated conscious SHR; assay type: in vivo, rat; conditions: 0.5 mg/kg i.v.
FAAH [3] = target: T2, FAAH (Rattus norvegicus, UniProt P97612); assay type: in vivo; conditions: for ID50, inhibition of brain FAAH activity: i.p., 1 h; for reduction of hepatic FAAH activity: 1 mg/kg i.p.
T2 sequence (P97612 1-579): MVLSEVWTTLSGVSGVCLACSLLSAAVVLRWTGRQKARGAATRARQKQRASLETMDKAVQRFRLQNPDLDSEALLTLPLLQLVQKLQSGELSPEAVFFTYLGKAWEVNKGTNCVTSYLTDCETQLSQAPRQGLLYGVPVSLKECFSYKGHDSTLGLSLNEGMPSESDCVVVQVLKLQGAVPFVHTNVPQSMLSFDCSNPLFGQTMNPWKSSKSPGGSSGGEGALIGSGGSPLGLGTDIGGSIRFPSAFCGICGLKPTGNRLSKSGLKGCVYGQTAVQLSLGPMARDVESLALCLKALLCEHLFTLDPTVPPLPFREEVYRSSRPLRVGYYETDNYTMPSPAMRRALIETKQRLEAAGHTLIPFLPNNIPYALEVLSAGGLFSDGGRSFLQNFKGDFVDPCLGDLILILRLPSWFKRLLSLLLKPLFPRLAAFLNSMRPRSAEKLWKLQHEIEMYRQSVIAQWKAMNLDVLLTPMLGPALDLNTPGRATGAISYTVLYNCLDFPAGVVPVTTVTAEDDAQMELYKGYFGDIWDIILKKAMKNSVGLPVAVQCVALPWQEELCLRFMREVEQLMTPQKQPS

With `O=S(=O)(F)CCCCCc1ccc(O)cc1` [AM3506, 5-(4-hydroxyphenyl)pentanesulfonyl fluoride] the “effect on glucose tolerance” value ([1]; 1 mg/kg) was “did not affect glucose tolerance”, the “ipGTT area under the curve (AUC)” value ([1]; 1 mg/kg i.p. 60 min before glucose, vehicle 352±28) was 411 ± 35 mg·h/dL and the “effect on HR” value (SHR and WKY rats; SHR) was “marked bradycardia”. For the same molecule, the “effect on MAP” value (SHR and WKY rats; SHR) was “profound and sustained decrease”, the “effect on MAP and HR” value (SHR and WKY rats; WKY) was “only slight changes” and the “FAAH activity in tissue homogenates” value (FAAH [2]) was “equally effective in blocking FAAH activity in brain and liver”. For the same molecule, the “duration of MAP and HR effects” value (SHR; awake SHR, n = 5) was “up to 60 minutes”, the MAP after treatment (SHR; conscious SHR, from 176 ±4, n=4) was 127±5 mmHg and the HR after treatment (SHR; conscious SHR, from 355±6, n=4) was 286±22 bpm. For the same molecule, the “duration of MAP and HR effects” value (SHR; conscious SHR, n=4) was “up to an hour”, the “ID50, inhibition of brain FAAH activity” value (FAAH [3]; SHR brain) was roughly 0.1 mg/kg and the “reduction of hepatic FAAH activity” value (FAAH [3]; SHR liver) was 11.1±0.4%. The “ID50, inhibition of brain FAAH activity” value (FAAH [3]; WKY brain) was roughly 0.1 mg/kg and the “reduction of hepatic FAAH activity” value (FAAH [3]; WKY liver) was 6.7±0.2%.
